Molecules are shown by their SMILES.

Results on 11 compounds are retold here after ChEMBL document CHEMBL3872260, “Influence of chain length on the activity of tripeptidomimetic antagonists for CXC chemokine receptor 4 (CXCR4)” (Bioorg Med Chem, 2017).

In this experiment the target is C-X-C chemokine receptor type 4 (Homo sapiens, UniProt P61073). Put plainly: Antagonist activity at wild-type human CXCR4 expressed in COS7 cells co-expressing chimeric galphai assessed as inhibition of CXCL12-induced [3H]inositol-phosphate accumulation measured after 90 mins in presence of Myo-[2-3H]-inositol by scintillation proximity assay. The class given is functional, cell-based, COS-7. (In general: Scintillation proximity formats need no separation of bound from free tracer.)
C-X-C chemokine receptor type 4, sequence (P61073 whole entry): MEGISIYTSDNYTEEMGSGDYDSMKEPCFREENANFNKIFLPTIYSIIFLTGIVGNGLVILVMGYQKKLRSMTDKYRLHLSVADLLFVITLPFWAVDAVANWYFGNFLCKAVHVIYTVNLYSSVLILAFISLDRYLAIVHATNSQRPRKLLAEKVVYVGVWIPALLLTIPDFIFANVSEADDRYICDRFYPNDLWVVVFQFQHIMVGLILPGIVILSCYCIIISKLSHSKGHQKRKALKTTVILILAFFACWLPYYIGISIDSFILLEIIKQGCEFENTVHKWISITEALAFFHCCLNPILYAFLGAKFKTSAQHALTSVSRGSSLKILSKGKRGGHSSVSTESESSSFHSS

Regarding `N=C(N)NCCCC1CSC2CN(Cc3cccc4ccccc34)C(=O)[C@H](CCCNC(=N)N)N2C1=O` (mixture of isomers), the EC50 (read-out: EC50) was more than 100 µM.
On to `N=C(N)NCCCC[C@H]1C(=O)N(CCc2ccc3ccccc3c2)C[C@H]2SC[C@@H](CCNC(=N)N)C(=O)N21`, for which the EC50 is, setting by setting: (read-out: EC50) more than 100 µM; (read-out: pEC50 (converted)) less than 100 µM.
On the same counts, the results for `N=C(N)NCCCC1CSC2CN(Cc3ccc4ccccc4c3)C(=O)[C@H](CCCNC(=N)N)N2C1=O` (mixture of isomers) are more than 100 µM and less than 100 µM.
For the compound `N=C(N)NCCC[C@H]1C(=O)N(CCc2ccc3ccccc3c2)C[C@@H]2SC[C@H](CCNC(=N)N)C(=O)N21`, the EC50 was more than 100 µM (read-out: EC50) and less than 100 µM (read-out: pEC50 (converted)).
For the compound `N=C(N)NCCCC[C@@H]1CS[C@@H]2CN(CCc3ccc4ccccc4c3)C(=O)[C@H](CCCNC(=N)N)N2C1=O`, the EC50 is more than 100 µM (read-out: EC50) and less than 100 µM (read-out: pEC50 (converted)).
For `N=C(N)NCCCC[C@H]1CS[C@H]2CN(CCc3ccc4ccccc4c3)C(=O)[C@H](CCCNC(=N)N)N2C1=O`, the EC50 (read-out: EC50) is more than 100 µM and the EC50 (read-out: pEC50 (converted)) is less than 100 µM.
With `N=C(N)NCCC[C@H]1C(=O)N(CCc2ccc3ccccc3c2)C[C@H]2SC[C@@H](CCNC(=N)N)C(=O)N21`, the EC50 (read-out: EC50) was more than 100 µM.
`N=C(N)NCCCC[C@H]1C(=O)N(CCc2ccc3ccccc3c2)C[C@@H]2SC[C@H](CCCNC(=N)N)C(=O)N21`: the EC50 (read-out: EC50) was more than 100 µM.
The same measure, in the same setting: in the case of `N=C(N)NCCCC1CSC2CN(Cc3ccc4ccccc4c3Br)C(=O)[C@H](CCCNC(=N)N)N2C1=O` (mixture of isomers) it was 61 µM.
Turning to `N=C(N)NCCCC[C@H]1C(=O)N(CCc2ccc3ccccc3c2)C[C@H]2SC[C@@H](CCCNC(=N)N)C(=O)N21`, the EC50 reads like this: (read-out: EC50) more than 100 µM; (read-out: pEC50 (converted)) less than 100 µM.
Take `N=C(N)NCCCC[C@H]1C(=O)N(CCc2ccc3ccccc3c2)C[C@@H]2SC[C@H](CCNC(=N)N)C(=O)N21`: the EC50 was more than 100 µM (read-out: EC50) and less than 100 µM (read-out: pEC50 (converted)).
